From US8426620B2, “Production methods of furan fatty acids” (Kyungpook National University Industry-Academic Cooperation …, priority 2011, dated 2013) come the findings set out here.

SMILES strings stand for the structures. Entries after “also recorded” stand apart in the source; their conditions may differ.

The assay can be described thus: DPPH radical scavenging (antioxidant) assay. Conditions: for radical scavenging activity (in words): DPPH assay, up to 100 μg/mL, FIG. 8. How it is done:
Antioxidant activity was analyzed using 2,2-Diphenyl-1-picryhydrazyl (DPPH) assay according to the reports (22). Briefly, 50 μl of sample solution in DMSO was added to 200 μl of 200 μM DPPH radical solution in a 96-well plate. L-ascorbic acid and α-Tocopherol were used as positive controls. After 30 min of incubation at 37° C., the absorbance at 515 nm was measured. DPPH free radical scavenging activities was calculated using the equation; radical scavenging activity (%)=[1−(Asample−Ablank)/(Acontrol−Ablank)]×100. DMSO was used as a control.
(In general: DPPH is a stable violet radical that fades when it is reduced.)

Regarding `CCCCCCCCc1ccc(CCCCCC(=O)O)o1` [7,10-EODA, 7,10-epoxy-octadeca-7,9-dienoic acid], the “radical scavenging activity (in words)” value is “radical scavenging activity increasing in a dose-dependent manner; also recorded: increased dose-dependently”. The same molecule gave a radical scavenging activity (highest concentration tested, 100 μg/mL, 30 min at 37° C., absorbance 515 nm) of 23%.

Take `CCCCCCCC[C@H](O)/C=C/[C@@H](O)CCCCCC(=O)O` [DOD, 7,10-dihydroxy-8(E)-octadecenoic acid, reference compound]: the “radical scavenging activity (in words)” value is “did not show any activity”.
